The text below walks through data of patent US20220324913A1, “ANTIGENIC NEURON SPECIFIC ENOLASE PEPTIDES FOR DIAGNOSING AND TREATING AUTISM” (THE REGENTS OF THE UNIVERSITY OF CALIFORNIA, priority 2019, published 2022).

Entries after “also recorded” stand apart in the source; their conditions may differ.

For this assay, the system named is maternal autoantibodies (plasma from mothers of ASD and TD children). As to the kind of experiment: NSE 15-mer peptide microarray epitope mapping probed with maternal plasma. As to conditions: for Specific binding: group whose antibodies recognize the sequence; for ASD + N = 19 (number of positive samples) / ASD + N = 8 (number of positive samples): mothers of ASD children; for ASD + N = 19 (number of positive samples) / TD + N = 10 (number of positive samples) / ASD + N = 8 (number of positive samples) / TD + N = 11 (number of positive samples): positive if FI >200; for TD + N = 10 (number of positive samples) / TD + N = 11 (number of positive samples): mothers of TD children. It counts as binding, human.

With “410 (RLAKYNQLMRIEEEL; listed as Homo sapiens) [compound 410]”, for the setting “ELISA positive samples”, the Specific binding entry is “ASD”, the “ASD + N = 19 (number of positive samples)” value was 5 and the “TD + N = 10 (number of positive samples)” value was 0.

With “YPVVSIEDPFDQDDW (listed as Homo sapiens) [ES 294]”, under “ELISA positive samples, listed as SEQ ID NO:8”, the Specific binding result is on record as “recognized by plasma from both sample groups; also recorded: recognized by antibodies in both experimental groups”.

On to “294 (YPVVSIEDPFDQDDW; listed as Homo sapiens) [compound 294]”, for which, for the setting “ELISA negative samples”, the Specific binding entry was “ASD and TD”; the “ASD + N = 8 (number of positive samples)” value turned out to be 5; the “TD + N = 11 (number of positive samples)” value is listed as 7. For the same substance, where the note is “ELISA positive samples”, the “ASD + N = 19 (number of positive samples)” value amounted to 8 and the “TD + N = 10 (number of positive samples)” value was determined as 4.

On to “298 (SIEDPFDQDDWAAWS; listed as Homo sapiens) [compound 298]”, for which, where the note is “ELISA positive samples”, the Specific binding entry was “ASD”, the “ASD + N = 19 (number of positive samples)” value is 4 and the “TD + N = 10 (number of positive samples)” value was determined as 0.

Take “VSIEDPFDQDDWAAW (listed as Homo sapiens) [ES 297]”: under “ELISA positive samples, listed as SEQ ID NO:11”, the Specific binding result is “recognized by plasma from both sample groups; also recorded: recognized by antibodies in both experimental groups”.

Consider “293 (DYPVVSIEDPFDQDD; listed as Homo sapiens) [compound 293]”, for which, where the note is “ELISA negative samples”, the Specific binding result is “ASD and TD”; the “ASD + N = 8 (number of positive samples)” value came to 6; the “TD + N = 11 (number of positive samples)” value worked out at 7. In addition, where the note is “ELISA positive samples”, the “ASD + N = 19 (number of positive samples)” value is 6 and the “TD + N = 10 (number of positive samples)” value was found to be 4.

Take “408 (SERLAKYNQLMRIEE; listed as Homo sapiens) [compound 408]”: where the note is “ELISA positive samples”, the Specific binding result was “ASD”, the “ASD + N = 19 (number of positive samples)” value came out at 6 and the “TD + N = 10 (number of positive samples)” value is 0.

As to “411 (LAKYNQLMRIEEELG; listed as Homo sapiens) [compound 411]”, for the setting “ELISA positive samples”, the Specific binding entry was “ASD”, the “ASD + N = 19 (number of positive samples)” value is 3 and the “TD + N = 10 (number of positive samples)” value was found to be 0.

Take “295 (PVVSIEDPFDQDDWA; listed as Homo sapiens) [compound 295]”: under “ELISA negative samples”, the Specific binding result is “ASD and TD”; the “ASD + N = 8 (number of positive samples)” value came out at 4; the “TD + N = 11 (number of positive samples)” value was 3. For the setting “ELISA positive samples”, the “ASD + N = 19 (number of positive samples)” value was determined as 5 and the “TD + N = 10 (number of positive samples)” value is listed as 2.

Regarding “297 (VSIEDPFDQDDWAAW; listed as Homo sapiens) [compound 297]”, where the note is “ELISA negative samples”, the Specific binding entry is “ASD and TD”; the “ASD + N = 8 (number of positive samples)” value was 2; the “TD + N = 11 (number of positive samples)” value is given as 2. Moreover, where the note is “ELISA positive samples”, the “ASD + N = 19 (number of positive samples)” value amounted to 4 and the “TD + N = 10 (number of positive samples)” value came out at 1.

As for “288 (QDFVRDYPVVSIEDP; listed as Homo sapiens) [compound 288]”, where the note is “ELISA negative samples”, the Specific binding result was “ASD”, the “ASD + N = 8 (number of positive samples)” value is on record as 3 and the “TD + N = 11 (number of positive samples)” value is 0.

Regarding “281 (DQLGALYQDFVRDYP; listed as Homo sapiens) [compound 281]”, where the note is “ELISA positive samples”, the Specific binding entry is “ASD”, the “ASD + N = 19 (number of positive samples)” value was determined as 3 and the “TD + N = 10 (number of positive samples)” value worked out at 0.

In the case of “DYPVVSIEDPFDQDD (listed as Homo sapiens) [ES 293]”, under “ELISA positive samples, listed as SEQ ID NO:7”, the Specific binding result is listed as “recognized by plasma from both sample groups; also recorded: recognized by antibodies in both experimental groups”.

“289 (DFVRDYPVVSIEDPF; listed as Homo sapiens) [compound 289]”: under “ELISA positive samples”, the Specific binding result is listed as “ASD”, the “ASD + N = 19 (number of positive samples)” value was 3 and the “TD + N = 10 (number of positive samples)” value is recorded as 0.

Consider “413 (KYNQLMRIEEELGDE; listed as Homo sapiens) [compound 413]”, for which, for the setting “ELISA positive samples”, the Specific binding result is given as “ASD”, the “ASD + N = 19 (number of positive samples)” value came out at 3 and the “TD + N = 10 (number of positive samples)” value is 0.
